This data set is described as follows: Modulated differential scanning calorimetry (glass transition in the reversing signal). The class given is physicochemical. The method, then: Modulated Differential scanning calorimetry (MDSC) was performed to evaluate the thermal characteristics before and after melt extrusion with injection of pressurized carbon dioxide. […] A glass transition is observed as an inflection in the DSC profile when heat flow is plotted against temperature. Often, the glass transition is accompanied with an enthalpy relaxation, which is seen as an endothermic signal superimposed on the glass transition. Furthermore, these polymers can be hydrophilic and thus they may have adsorbed a significant amount of water. Evaporation of water is also an endothermic process. These signals make interpretation of the glass transition difficult. Therefore, MDSC was used so that the different thermal events could be elucidated with regard to the reversible and non-reversible transitions. […]
The measurements were performed using a TA Instruments modulated DSC Q1000 differential scanning calorimeter and thermal analysis controller (TA Instruments, New Castle, Del., USA). […] The samples were analysed in standard (open) aluminum as well as in hermetically sealed TA Instruments pans. […] The glass transition was measured at the inflection point as half the height of the shift in the heat flow signal (Tg 1/2 cp). […]
The samples measured in open pans as well as in hermetically sealed pans were analysed at least in duplicate.
(In general: DSC measures the heat that a sample takes up or gives off during a temperature scan.)

The values below come from patent US20070098801A1, “Particles shaped as platelets” (JANSSEN PHARMACEUTICA N.V., priority 2003, published 2007).

Turning to `CCC(C)n1ncn(-c2ccc(N3CCN(c4ccc(OCC5COC(Cn6cncn6)(c6ccc(Cl)cc6Cl)O5)cc4)CC3)cc2)c1=O` (stereo not shown) [itraconazole], the “Melting enthalpy ΔH of pure itraconazole” value stood at 85 J/g.
